{"source": "patent US9067960B2", "about": "“Hybrid SCFA-hydroxyl-derivatized monosaccharides, methods of synthesis, and methods of treating disorders” (The Johns Hopkins University, priority 2007, dated 2015)", "key": {"transformed cells": {"system": "transformed cells", "details": "cited from earlier work"}, "Toxicity of MOE analogs": {"test": "Toxicity of MOE analogs", "format": "cell-based"}, "Jurkat cells [1]": {"system": "Jurkat cells", "test": "Surface expression of Sia5Lev: ketone-bearing sialosides by biotin hydrazide, FITC-avidin, flow cytometry", "format": "cell-based, human"}, "Jurkat cells [2]": {"system": "Jurkat cells", "test": "Toxicity and growth inhibition assays (cell counts, days 3-15)", "format": "cell-based, human", "protocol": "Solutions of the analogs in EtOH (10 mM stock) are coated onto 24-well plates at a range of concentrations from 0-320 μM and ethanol is allowed to evaporate. Jurkat cells (1.0×10^5 cells) in 0.5 mL of medium are plated in each well (day 0). On days 3 and 5, fresh medium (1.0 mL) is added to each well. Cell cultures are mixed by gentle pipetting and 100 μL of cell suspension are taken from each well and counted. On days 7, 9, 11, 13 and 15, 1.0 mL of cell suspension is removed from each well after thorough mixing and fresh medium (1.0 mL) is added. Cells are counted on day 15 and the cell density is plotted as a percentage of control.\nIn initial assays, Jurkat (human T-lymphoma) cells are incubated with compounds of the invention and growth rates were monitored. The compounds reduce cell proliferation at early time points (days 3 & 5) in a dose dependent manner."}, "human cancer cells": {"system": "human cancer cells", "test": "Killing of cancer cells by SCFA-hexosamine hybrid molecules (apoptosis, growth)", "format": "cell-based", "description": "ManNAc has several attractive features that led us to select it as an hexosamine for use in butyrate-sugar hybrid drug development. First, it is a committed precursor for the sialic acid biosynthetic pathway and has no other known metabolic roles, thereby allowing a specific and unique biochemical pathway to be targeted. Second, uptake of exogenous ManNAc alters flux through the sialic acid biosynthetic pathway and changes sialyltransferase and sialidase activity thereby altering the display of sialic acid on cell surface glycoproteins and glycolipids. Because these sialoglycans modulate apoptosis, it was hypothesized that an n-butyrate prodrug with ManNAc as an active carrier would both “arrest” and “execute” cancer cells via SCFA-mediated cell cycle inhibition and ManNAc-augmented apoptosis, respectively. […]\nJurkat cells (5.0×10^5 per mL) are incubated with PBS and a compound of the invention at […]. After 48 h, the cells are counted, harvested, washed once in fresh medium and plated in a 24-well plate containing various concentrations of sodium butyrate (0-2.0 mM; a stock solution of 200 mM in PBS was used for dilutions and control samples). Cell cultures are maintained and growth is monitored for 15 days as described above under the toxicity and growth inhibition assays. […]"}, "sialic acid biosynthesis": {"system": "sialic acid biosynthesis", "test": "Total sialic acid production (periodate-resorcinol assay)", "format": "cell-based", "protocol": "Jurkat cells (5.0×10^6 cells in 10 mL medium) are incubated a compound of the invention at various concentrations. After three days, the cells (1.0×10^6 cells per sample) are lysed by freeze-thaw cycles (three times). The cell lysates are analyzed by using an adapted version of the periodate-resorcinol assay with the periodic acid oxidation step performed on ice to allow quantification of total (i.e., free monosaccharide plus glycoconjugate-bound) sialic acid. For each assay, a standard curve is obtained using N-acetylneuraminic acid (Pfanstiehl, Waukegan, Ill.) for calibration."}, "histone deacetylase": {"system": "histone deacetylase", "test": "HDAC inhibitor (SCFA) activity of sugar-delivered butyrate", "format": "cell-based", "description": "In this section, we present evidence for the first aspect of our model to describe the bioactivity of the compounds of the invention against cancer cells—namely that sugar-delivered butyrate acts as an HDACi—by a set of three complementary assays. […] Together, these assays provide convincing proof that sugar-delivery n-butyrate retains its characteristic SCFA bioactivity."}, "stem cells": {"system": "stem cells", "test": "Control of stem cell fate", "format": "cell-based, human", "description": "The combination of the biological activities SCFA- and sugar activities of compounds (such as Bu4ManNAc or l(OH)But3ManNAc is useful for cancer treatment because each of the biological activities of the hybrid molecule have been designed to work in concert against a particular characteristic of cancer. An equally valuable aspect of the current invention, however, is ability to separate the various biological activities of the hybrid molecules—for example it is now possible to maintain flux through a glycosylation pathway and to simultaneously avoid or minimize SCFA effects such as toxicity or changes to gene expression that affect the cellular phenotype under investigation (see FIG. 10). This ability opens the door to the many scenarios where an SCFA is attached to a core sugar towards the sole purpose of increasing the metabolic efficiency of the sugar without triggering biological activities of the SCFA moiety. In this case, non-natural monosaccharide analogs would transit the glycosylation pathways without eliciting unrelated changes to proliferation, apoptosis, or gene expression that would either confound interpretation of the experiment under way or actually lead to deleterious cellular outcomes. […]"}}, "note": "“Also recorded” adds a separate entry of the source."}
{"smiles": "CCCC(=O)O.COc1cccc(C#CCON=C2CN3CCC2C3)c1", "note": "(centres unmarked) [n-Butyrate, n-butyrate]", "values": [{"measurement": "levels needed for bioactivity", "setting": "transformed cells", "result": "up to 50 mM"}]}
{"smiles": "CC(=O)OCC(=O)N[C@@H]1C(OC(C)=O)O[C@H](COC(C)=O)[C@@H](OC(C)=O)[C@@H]1OC(C)=O", "note": "(some centres unmarked) [Ac5ManNGc]", "values": [{"measurement": "toxicity", "setting": "Toxicity of MOE analogs", "result": "considerable toxicity"}]}
{"smiles": "CCCC(=O)OC1O[C@H](CO)[C@@H](OC(=O)CCC)[C@H](OC(=O)CCC)[C@@H]1NC(C)=O", "note": "(some centres unmarked) [6(OH)But3ManNAc, 1,3,4-O-Bu3ManNAc]", "values": [{"measurement": "toxicity", "setting": "Toxicity of MOE analogs", "result": "avoiding toxicity"}]}
{"smiles": "CCCC(=O)OC1O[C@H](CO)[C@@H](OC(=O)CCC)[C@H](OC(=O)CCC)[C@@H]1NC(=O)CCC(C)=O", "note": "(stereo partly drawn) [compound 13, 1,3,4-tri-O-butanoyl-2-deoxy-2-(4-oxopentanoyl)amino-α,β-D-mannopyranose]", "values": [{"measurement": "Surface detection of ketone-bearing sialosides (cell surface ketone labeling)", "setting": "Jurkat cells [1]", "result": "even more efficient at providing cell surface ketone labeling"}, {"measurement": "Growth inhibition after 3 days", "setting": "Jurkat cells [2]", "result": "significantly less inhibitory"}]}
{"smiles": "CCCC(=O)OCC1OC(OC(=O)CCC)C(NC(C)=O)[C@@H](OC(=O)CCC)[C@@H]1OC(=O)CCC", "note": "(some centres unmarked) [Bu4ManNAc]", "values": [{"measurement": "cell killing", "setting": "human cancer cells", "result": "ultimately killed the cells"}, {"measurement": "induction of apoptosis", "setting": "human cancer cells", "result": "gains a unique ability to induce apoptosis; also recorded: efficiently induced apoptosis"}, {"measurement": "sialic acid biosynthesis", "setting": "sialic acid biosynthesis", "result": "activates sialic acid biosynthesis; also recorded: primes sialic acid biosynthesis"}, {"measurement": "function as histone deacetylase inhibitor (HDACi)", "setting": "histone deacetylase", "result": "functioning as an HDACi"}]}
{"smiles": "CC(=O)OCC1OC(OC(C)=O)C(NC(=O)CSC(C)=O)C(OC(C)=O)C1OC(C)=O", "note": "(centres unmarked) [Ac5ManNTGc]", "values": [{"measurement": "toxicity", "setting": "Toxicity of MOE analogs", "result": "considerable toxicity"}, {"measurement": "fate of stem cells", "setting": "stem cells", "result": "can control the fate of stem cells"}]}
